Assay results from ChEMBL document CHEMBL1201862, “PubChem BioAssay data set” (2004).
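Following 48 hours of exposure in 96-well plates, responses at five concentrations were used to interpolate endpoints linearly. GI50 is the concentration that inhibits growth by half.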 Calls of active or inactive are those of the source. Rule as the data show it: active = GI50 up to about 1.1 µM and inactive = higher.

How the values were obtained:
Assay in all cases: DTP human tumour cell line panel, 48 h
DU-145 = test system: DU-145
CAKI-1 = test system: CAKI-1
MDA-N = test system: MDA-N
SF-268 = test system: SF-268
SNB-19 = test system: SNB-19
SK-OV-3 = test system: SK-OV-3
NCI-H226 = test system: NCI-H226
OVCAR-5 = test system: OVCAR-5
SK-MEL-5 = test system: SK-MEL-5
U-251 = test system: U-251
OVCAR-4 = test system: OVCAR-4
A549 = test system: A549
Hs-578T = test system: Hs-578T
PC-3 = test system: PC-3
786-0 = test system: 786-0
KM12 = test system: KM12
ACHN = test system: ACHN
CCRF-CEM = test system: CCRF-CEM
MDA-MB-435 = test system: MDA-MB-435
TK-10 = test system: TK-10

Measured: GI50

CSc1c(C#N)c(N)nc2c(/N=N\c3ccc(Cl)cc3)c(N)nn12
inactive: DU-145 2.24 µM | CAKI-1 18.7 µM | MDA-N 8.04 µM | SF-268 2.39 µM | SNB-19 17.3 µM | SK-OV-3 33 µM | NCI-H226 16.9 µM | OVCAR-5 17.3 µM | SK-MEL-5 14.6 µM | U-251 4.33 µM | OVCAR-4 2.64 µM | A549 25 µM | Hs-578T 1.23 µM | PC-3 2.7 µM | 786-0 2.86 µM | KM12 6.14 µM | ACHN 5.66 µM | CCRF-CEM 2.17 µM | MDA-MB-435 9.89 µM | TK-10 13.3 µM

COC(=O)C1C2CCCN2OC1(C)CO (stereo not given)
inactive: DU-145 > 100 µM | CAKI-1 > 100 µM | MDA-N > 100 µM | SF-268 > 100 µM | SNB-19 > 100 µM | SK-OV-3 > 100 µM | NCI-H226 > 100 µM | OVCAR-5 > 100 µM | SK-MEL-5 > 100 µM | U-251 > 100 µM | OVCAR-4 > 100 µM | A549 > 100 µM | Hs-578T > 100 µM | PC-3 > 100 µM | 786-0 > 100 µM | KM12 > 100 µM | ACHN > 100 µM | CCRF-CEM > 100 µM | MDA-MB-435 > 100 µM | TK-10 > 100 µM
